Results as given in patent US11053204B2, “Pyrimidinyloxy benzene derivatives as herbicides” (FMC Corporation, priority 2015, dated 2021).

What was measured:
Type in all cases: in vivo
[1] = system: barnyardgrass (Echinochloa crus-galli); assay: Test C postemergence, plant response rating; conditions: Echinochloa crus-galli, post-emergence
How it was run: (§1)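 Visual injury score, 0 = no effect, 100 = complete control, assigned against untreated controls after 13 to 15 d in the greenhouse. Compounds were applied in a surfactant-containing non-phytotoxic solvent mix, preemergence to seeded loam/sand or silt loam soil, or postemergence to 1- to 4-leaf plants (2 to 18 cm).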

[2] = system: ryegrass, Italian (Italian ryegrass, Lolium multiflorum); assay: Test C postemergence, plant response rating; conditions: Lolium multiflorum, post-emergence
How it was run: as §1

[3] = system: crabgrass, large (large crabgrass, Digitaria sanguinalis); assay: Test C postemergence, plant response rating; conditions: Digitaria sanguinalis, post-emergence
How it was run: as §1

[4] = system: nutsedge, yellow (yellow nutsedge, Cyperus esculentus); assay: Test C preemergence, plant response rating; conditions: Cyperus, pre-emergence, Preemergence
How it was run: as §1

[5] = system: velvetleaf (Abutilon theophrasti); assay: Test C preemergence, plant response rating; conditions: Abutilon theophrasti, pre-emergence, Preemergence
How it was run: as §1

[6] = system: lambsquarters (Chenopodium album); assay: Test C preemergence, plant response rating; conditions: Chenopodium album, pre-emergence, Preemergence
How it was run: as §1

[7] = system: waterhemp (common waterhemp, Amaranthus rudis); assay: Test C preemergence, plant response rating; conditions: Amaranthus tuberculatus, pre-emergence, Preemergence
How it was run: as §1

[8] = system: wheat (winter wheat, Triticum aestivum); assay: Test C preemergence, plant response rating; conditions: Triticum aestivum, pre-emergence, Preemergence
How it was run: as §1

[9] = system: morningglory (Ipomoea coccinea); assay: Test C preemergence, plant response rating; conditions: Ipomoea, pre-emergence, Preemergence
How it was run: as §1

[10] = system: barnyardgrass (Echinochloa crus-galli); assay: Test A postemergence, visual injury rating; conditions: Echinochloa crus-galli, post-emergence, 240 h, 0 is no effect, 100 is complete control, read-out: Barnyardgrass plant response rating (0 to 100 scale)
How it was run: (§2)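 Compounds in non-phytotoxic solvent with surfactant applied as soil spray preemergence, or postemergence to plants 2-10 cm at one- to two-leaf stage, in loam/sand. After approximately 10 days in greenhouse, injury rated visually versus untreated controls, 0 (no effect) to 100 (complete control).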

[11] = system: pigweed (Amaranthus retroflexus); assay: Test A postemergence, visual injury rating; conditions: Amaranthus retroflexus, post-emergence, 240 h, 0 is no effect, 100 is complete control, read-out: Pigweed plant response rating (0 to 100 scale)
How it was run: as §2

[12] = system: ragweed (common ragweed, Ambrosia elatior); assay: Test A postemergence, visual injury rating; conditions: Ambrosia artemisiifolia, post-emergence, 240 h, 0 is no effect, 100 is complete control, read-out: Ragweed plant response rating (0 to 100 scale)
How it was run: as §2

[13] = system: Italian ryegrass (Lolium multiflorum); assay: Test A postemergence, visual injury rating; conditions: Lolium multiflorum, post-emergence, 240 h, 0 is no effect, 100 is complete control, read-out: Ryegrass, Italian plant response rating (0 to 100 scale)
How it was run: as §2

[14] = system: blackgrass (Alopecurus myosuroides); assay: Test A postemergence, visual injury rating; conditions: Alopecurus myosuroides, post-emergence, 240 h, 0 is no effect, 100 is complete control, read-out: Blackgrass plant response rating (0 to 100 scale)
How it was run: as §2

[15] = system: giant foxtail (Setaria faberii); assay: Test A postemergence, visual injury rating; conditions: Setaria faberi, post-emergence, 240 h, 0 is no effect, 100 is complete control, read-out: Foxtail, Giant plant response rating (0 to 100 scale)
How it was run: as §2

[16] = system: kochia (Kochia scoparia); assay: Test A postemergence, visual injury rating; conditions: Bassia scoparia, post-emergence, 240 h, 0 is no effect, 100 is complete control, read-out: Kochia plant response rating (0 to 100 scale)
How it was run: as §2

[17] = system: corn (Zea mays); assay: Test A postemergence, visual injury rating; conditions: Zea mays, post-emergence, 240 h, 0 is no effect, 100 is complete control, read-out: Corn plant response rating (0 to 100 scale)
How it was run: as §2

[18] = system: wheat (Triticum aestivum); assay: Test A postemergence, visual injury rating; conditions: Triticum aestivum, post-emergence, 240 h, 0 is no effect, 100 is complete control, read-out: Wheat plant response rating (0 to 100 scale)
How it was run: as §2

[19] = system: galium (catchweed bedstraw, Galium aparine); assay: Test A postemergence, visual injury rating; conditions: Galium, post-emergence, 240 h, 0 is no effect, 100 is complete control, read-out: Galium plant response rating (0 to 100 scale)
How it was run: as §2

[20] = 62 g ai/ha, scale 0 to 100 (0 no effect, 100 complete control)
[21] = 125 g ai/ha, scale 0 to 100 (0 no effect, 100 complete control)

## O=C(OCCCC(F)(F)F)c1c(Br)cccc1Oc1ncc(Cl)cn1 [Compound 20, 4,4,4-trifluorobutyl 2-bromo-6-[(5-chloro-2-pyrimidinyl)oxy]benzoate]
[1]; 16 g ai/ha, scale 0 to 100
  pest or weed control at 16 g/ha: 10%
[1]; 31 g ai/ha, scale 0 to 100
  pest or weed control at 31 g/ha: 10%
[1]; [20]
  pest or weed control at 62 g/ha: 10%
[1]; [21]
  pest or weed control at 125 g/ha: 20%
[2]; 16 g ai/ha, scale 0 to 100
  pest or weed control at 16 g/ha: 0%
[2]; 31 g ai/ha, scale 0 to 100
  pest or weed control at 31 g/ha: 5%
[2]; [20]
  pest or weed control at 62 g/ha: 10%
[2]; [21]
  pest or weed control at 125 g/ha: 5%
[3]; 16 g ai/ha, scale 0 to 100
  pest or weed control at 16 g/ha: 10%
[3]; 31 g ai/ha, scale 0 to 100
  pest or weed control at 31 g/ha: 10%
[3]; [20]
  pest or weed control at 62 g/ha: 15%
[3]; [21]
  pest or weed control at 125 g/ha: 15%
[4]; 125 g ai/ha, scale of 0 to 100
  pest or weed control at 125 g/ha: 10%
[4]; 16 g ai/ha, scale 0 to 100
  pest or weed control at 16 g/ha: 0%
[4]; 31 g ai/ha, scale 0 to 100
  pest or weed control at 31 g/ha: 0%
[4]; 62 g ai/ha, scale 0 to 100
  pest or weed control at 62 g/ha: 0%
[5]; 125 g ai/ha, scale of 0 to 100
  pest or weed control at 125 g/ha: 50%
[5]; 16 g ai/ha, scale 0 to 100
  pest or weed control at 16 g/ha: 0%
[5]; 31 g ai/ha, scale 0 to 100
  pest or weed control at 31 g/ha: 0%
[5]; 62 g ai/ha, scale 0 to 100
  pest or weed control at 62 g/ha: 5%
[6]; 125 g ai/ha, scale of 0 to 100
  pest or weed control at 125 g/ha: 90%
[6]; 16 g ai/ha, scale 0 to 100
  pest or weed control at 16 g/ha: 0%
[6]; 31 g ai/ha, scale 0 to 100
  pest or weed control at 31 g/ha: 5%
[6]; 62 g ai/ha, scale 0 to 100
  pest or weed control at 62 g/ha: 10%
[7]; 125 g ai/ha, scale of 0 to 100
  pest or weed control at 125 g/ha: 98%
[7]; 16 g ai/ha, scale 0 to 100
  pest or weed control at 16 g/ha: 30%
[7]; 31 g ai/ha, scale 0 to 100
  pest or weed control at 31 g/ha: 85%
[7]; 62 g ai/ha, scale 0 to 100
  pest or weed control at 62 g/ha: 100%
[8]; 125 g ai/ha, scale of 0 to 100
  plant injury at 125 g/ha: 5%
[8]; 16 g ai/ha, scale 0 to 100
  plant injury at 16 g/ha: 0%
[8]; 31 g ai/ha, scale 0 to 100
  plant injury at 31 g/ha: 0%
[8]; 62 g ai/ha, scale 0 to 100
  plant injury at 62 g/ha: 0%
[9]; 125 g ai/ha, scale of 0 to 100
  pest or weed control at 125 g/ha: 10%
[9]; 16 g ai/ha, scale 0 to 100
  pest or weed control at 16 g/ha: 0%
[9]; 31 g ai/ha, scale 0 to 100
  pest or weed control at 31 g/ha: 0%
[9]; 62 g ai/ha, scale 0 to 100
  pest or weed control at 62 g/ha: 5%
[10]; 125 g ai/ha
  pest or weed control at 125 g/ha: 30%
[10]; 500 g ai/ha
  pest or weed control at 500 g/ha: 100%
[11]; 125 g ai/ha
  pest or weed control at 125 g/ha: 100%
[11]; 500 g ai/ha
  pest or weed control at 500 g/ha: 100%
[12]; 125 g ai/ha
  pest or weed control at 125 g/ha: 0%
[12]; 500 g ai/ha
  pest or weed control at 500 g/ha: 40%
[13]; 125 g ai/ha
  pest or weed control at 125 g/ha: 0%
[13]; 500 g ai/ha
  pest or weed control at 500 g/ha: 40%
[14]; 125 g ai/ha
  pest or weed control at 125 g/ha: 30%
[14]; 500 g ai/ha
  pest or weed control at 500 g/ha: 50%
[15]; 125 g ai/ha
  pest or weed control at 125 g/ha: 50%
[15]; 500 g ai/ha
  pest or weed control at 500 g/ha: 100%
[16]; 125 g ai/ha
  pest or weed control at 125 g/ha: 90%
[16]; 500 g ai/ha
  pest or weed control at 500 g/ha: 100%
[17]; 125 g ai/ha
  plant injury at 125 g/ha: 30%
[17]; 500 g ai/ha
  plant injury at 500 g/ha: 40%
[18]; 125 g ai/ha
  plant injury at 125 g/ha: 0%
[18]; 500 g ai/ha
  plant injury at 500 g/ha: 20%
[19]; 125 g ai/ha
  pest or weed control at 125 g/ha: 10%
[19]; 500 g ai/ha
  pest or weed control at 500 g/ha: 90%
